Experimental data taken from patent US20250186436A1 (4E Therapeutics, Inc., priority 2021, published 2025).
“And” between values parts separate entries of the source, which are not always exact repeats. Identical values can stand only once. Like-named read-outs stand apart in the source and are kept apart here.

Tests used:
[1] = PK study in male Sprague Dawley rats, IV 1 mg/kg and PO 10 mg/kg (Example 4); type: in vivo; conditions: for clearance: CLp; for Vd: Vss; for concentration at 24 h: plasma; for AUC(0-t): AUClast
[2] = PK study in male Sprague-Dawley rats dosed once per day for five days, PO 1 mg/kg, 0.5% HPMC (Example 6); type: in vivo; conditions: 0.5% HPMC suspension
Protocol: Example 6: PK study of 4ET-03-053 in male Sprague-Dawley rats dosed once per day for five days (P0; 1 mg/kg; 0.500HPMC aqueous suspension)
Table 18 provides plasma and brain concentrations of 4ET-03-0053 at 24 hr after the last dose of five daily P0 doses.

[3] = SD rats, single PO 10 mg/kg, 10% DMA/PG, individual animals, 10 mg/kg
[4] = SD rats, single PO 10 mg/kg, 10% DMA/PG, mean (n = 3)
[5] = male SD rats, 1 mg/kg IV, individual animals, 1 mg/kg
[6] = male SD rats, 1 mg/kg IV, mean (n = 3)
[7] = male, Sprague Dawley, rat, in vivo, iv, 1 mg/kg
[8] = male, Sprague-Dawley, rat, in vivo, iv, 1 mg/kg
[9] = male, Sprague-Dawley, rat, in vivo, po, 10 mg/kg
[10] = Sprague-Dawley rats, day 5 of daily PO 1 mg/kg, individual animals, 1 mg/kg
[11] = Sprague-Dawley rats, day 5 of daily PO 1 mg/kg, mean (n = 3)
[12] = male Sprague-Dawley rats, single (first) PO 1 mg/kg dose, individual animals, 1 mg/kg
[13] = male Sprague-Dawley rats, single (first) PO 1 mg/kg dose, mean (n = 3)
[14] = male, Sprague-Dawley, rat, in vivo, po, 1 mg/kg, Sprague-Dawley rats, day 5 of daily PO 1 mg/kg, individual animals
[15] = male, Sprague-Dawley, rat, in vivo, po, 1 mg/kg, Sprague-Dawley rats, day 5 of daily PO 1 mg/kg, mean (n = 3)
[16] = male, Sprague-Dawley, rat, in vivo, po, 1 mg/kg, male Sprague-Dawley rats, single (first) PO 1 mg/kg dose, individual animals
[17] = male, Sprague-Dawley, rat, in vivo, po, 1 mg/kg, male Sprague-Dawley rats, single (first) PO 1 mg/kg dose, mean (n = 3)

## Cc1cc(Nc2cc(N)ncn2)c(=O)n2c1C(=O)NC21CCC2(CC2)CC1 [4ET-03-053, 6″-((6-Aminopyrimidin-4-yl)amino)-8″-methyl-2″H-dispiro[cyclopropane-1,1′-cyclohexane-4′,3″-imidazo[1,5-a]pyridine]-1″,5″-dione]
[1]; SD rats, single PO 10 mg/kg, 10% DMA/PG, individual animals
  Tlast: 24.0 h
[1]; [3]
  AUCinf/D: 23000 kg·h/kL and 24504 kg·h/kL and 18751 kg·h/kL
  Clast: 2710 ng/mL and 2950 ng/mL
  Cmax/D: 1440 kg/kL and 1960 kg/kL and 1840 kg/kL
  F: 44.7% and 47.6% and 36.4%
[1]; [4]
  AUCinf/D: 22085 kg·h/kL
  Cmax/D: 1747 kg/kL
  F: 42.9%
  Tlast: 24.0 h
[1]; male SD rats, 1 mg/kg IV, individual animals
  Tlast: 24.0 h
[1]; [5]
  AUCinf: 55049 ng·h/mL and 46264 ng·h/mL
  AUCinf/D: 53103 kg·h/kL and 55049 kg·h/kL and 46264 kg·h/kL
  Clast: 302 ng/mL and 336 ng/mL
  Co: 8106 ng/mL and 7353 ng/mL and 7726 ng/mL
[1]; [6]
  AUCinf/D: 51472 kg·h/kL
  Co: 7728 ng/mL
  Tlast: 24.0 h
[1]; [7]
  C0: 7730 ng/mL
  CLp: 0.326 mL/min/kg
  clearance: 0.33 mL/min/kg
  Vd: 0.15 L/kg
[1]; male, Sprague Dawley, rat, in vivo, iv, 1 mg/kg, t1/2
  half-life: 6.36 h
[1]; male, Sprague Dawley, rat, in vivo, iv, 1 mg/kg, total systemic exposure (AUCinf)
  AUC(0-inf): 51500 ng·h/mL
[1]; male, Sprague Dawley, rat, in vivo, po, 10 mg/kg
  bioavailability: 42.9%
[1]; male, Sprague Dawley, rat, in vivo, po, 10 mg/kg, peak plasma concentration (Cmax)
  Cmax: 17500 ng/mL
[1]; male, Sprague Dawley, rat, in vivo, po, 10 mg/kg, terminal half-life (t1/2)
  half-life: 9.1 h
[1]; male, Sprague Dawley, rat, in vivo, po, 10 mg/kg, total systemic exposure (AUCinf)
  AUC(0-inf): 221000 ng·h/mL
[1]; male, Sprague Dawley, rat, iv, 1 mg/kg, male SD rats, 1 mg/kg IV, at 24 h, mean (n = 3), read-out: Clast
  concentration at 24 h: 350 ng/mL
[1]; male, Sprague Dawley, rat, po, 10 mg/kg, rats, 10 mg/kg PO, 10% DMA/PG, at 24 h, read-out: last measurable concentration
  concentration at 24 h: 2620 ng/mL
[1]; [8]
  AUC(0-t): 51100 ng·h/mL
  clearance: 0.314 mL/min/kg
  Vd: 0.136 L/kg
[1]; male, Sprague-Dawley, rat, in vivo, iv, 1 mg/kg, MRTinf
  MRT inf: 7.24 h
[1]; male, Sprague-Dawley, rat, in vivo, iv, 1 mg/kg, male SD rats, 1 mg/kg IV, individual animals, read-out: AUCinf
  AUC(0-inf): 53100 ng·h/mL
[1]; male, Sprague-Dawley, rat, in vivo, iv, 1 mg/kg, male SD rats, 1 mg/kg IV, mean (n = 3), read-out: AUCinf
  AUC(0-inf): 51500 ng·h/mL
[1]; male, Sprague-Dawley, rat, in vivo, iv, 1 mg/kg, t1/2
  half-life: 6.63 h
[1]; [9]
  Tmax: 0.5 h
  AUC(0-t): 194000 ng·h/mL
[1]; male, Sprague-Dawley, rat, in vivo, po, 10 mg/kg, Cmax
  Cmax: 14400 ng/mL
[1]; male, Sprague-Dawley, rat, in vivo, po, 10 mg/kg, t1/2
  half-life: 9.07 h
[1]; male, Sprague-Dawley, rat, iv, 1 mg/kg, male SD rats, 1 mg/kg IV, individual animals, read-out: Clast
  concentration at 24 h: 411 ng/mL
[1]; male, Sprague-Dawley, rat, po, 10 mg/kg, SD rats, single PO 10 mg/kg, 10% DMA/PG, individual animals, read-out: Clast
  concentration at 24 h: 2210 ng/mL
[1]; male, Sprague-Dawley, rat, po, 10 mg/kg, SD rats, single PO 10 mg/kg, 10% DMA/PG, mean (n = 3), read-out: Clast
  concentration at 24 h: 2620 ng/mL
[1]; rats, 1 mg/kg IV
  clinical observation after dosing: lying on side and immobile with heavy breathing for about 10 min
[1]; rats, 1 mg/kg IV, 1 mg/kg
  clinical observation after dosing: The second animal died right after a slow IV injection
[1]; rats, 10 mg/kg PO, 10% DMA/PG
  time to peak plasma concentration: ≤ 30 m
[2]; Sprague-Dawley rats, after five daily PO doses of 1 mg/kg
  time to peak plasma concentration: ≤ 2 h
[2]; [10]
  AUCinf: 43537 ng·h/mL and 36277 ng·h/mL
  AUCinf/D: 49825 kg·h/kL and 43537 kg·h/kL and 36277 kg·h/kL
  AUClast: 40882 ng·h/mL and 34335 ng·h/mL
  Clast: 318 ng/mL and 291 ng/mL
  Cmax: 4550 ng/mL and 4500 ng/mL
  Cmax/D: 4150 kg/kL and 4550 kg/kL and 4500 kg/kL
  F: 96.8% and 84.6% and 70.5%
  MRTinf: 7.96 h
  t1/2: 5.90 h and 6.21 h
[2]; [11]
  AUCinf/D: 43213 kg·h/kL
  Cmax/D: 4400 kg/kL
  F: 84.0%
[2]; [12]
  AUCinf: 33302 ng·h/mL and 30451 ng·h/mL
  AUCinf/D: 37178 kg·h/kL and 33302 kg·h/kL and 30451 kg·h/kL
  AUClast: 31340 ng·h/mL and 28992 ng·h/mL
  Clast: 237 ng/mL and 224 ng/mL
  Cmax: 2750 ng/mL
  Cmax/D: 2400 kg/kL and 2750 kg/kL and 2580 kg/kL
  F: 72.2% and 64.7% and 59.2%
  MRTinf: 8.31 h and 7.83 h
  t1/2: 5.77 h and 5.92 h
[2]; [13]
  AUCinf/D: 33644 kg·h/kL
  Cmax/D: 2577 kg/kL
  F: 65.4%
[2]; male Sprague-Dawley rats, single PO 1 mg/kg
  time to peak plasma concentration: ≤ 2 h
[2]; male, Sprague-Dawley, rat, in vivo, po, 1 mg/kg, Sprague-Dawley rats, after five daily PO doses of 1 mg/kg
  bioavailability: 84%
[2]; male, Sprague-Dawley, rat, in vivo, po, 1 mg/kg, Sprague-Dawley rats, after five daily PO doses of 1 mg/kg, at 24 hr, read-out: last measurable concentration
  concentration at 24 h: 278 ng/mL
[2]; male, Sprague-Dawley, rat, in vivo, po, 1 mg/kg, Sprague-Dawley rats, after five daily PO doses of 1 mg/kg, read-out: peak plasma concentration (Cmax)
  Cmax: 4400 ng/mL
[2]; male, Sprague-Dawley, rat, in vivo, po, 1 mg/kg, Sprague-Dawley rats, after five daily PO doses of 1 mg/kg, read-out: terminal half-life (t1/2) (converted)
  half-life: 6.01 h
[2]; male, Sprague-Dawley, rat, in vivo, po, 1 mg/kg, Sprague-Dawley rats, after five daily PO doses of 1 mg/kg, read-out: total systemic exposure (AUCinf)
  AUC(0-inf): 43200 ng·h/mL
[2]; [14]
  AUC(0-t): 47100 ng·h/mL
  MRT inf: 7.89 h
  Tmax: 1 h
[2]; male, Sprague-Dawley, rat, in vivo, po, 1 mg/kg, Sprague-Dawley rats, day 5 of daily PO 1 mg/kg, individual animals, read-out: AUCinf
  AUC(0-inf): 49800 ng·h/mL
[2]; male, Sprague-Dawley, rat, in vivo, po, 1 mg/kg, Sprague-Dawley rats, day 5 of daily PO 1 mg/kg, individual animals, read-out: Clast
  concentration at 24 h: 226 ng/mL
[2]; male, Sprague-Dawley, rat, in vivo, po, 1 mg/kg, Sprague-Dawley rats, day 5 of daily PO 1 mg/kg, individual animals, read-out: Cmax
  Cmax: 4150 ng/mL
[2]; male, Sprague-Dawley, rat, in vivo, po, 1 mg/kg, Sprague-Dawley rats, day 5 of daily PO 1 mg/kg, individual animals, read-out: t1/2 (converted)
  half-life: 5.91 h
[2]; [15]
  AUC(0-t): 40800 ng·h/mL
  MRT inf: 7.8 h
  Tmax: 1.33 h
[2]; male, Sprague-Dawley, rat, in vivo, po, 1 mg/kg, Sprague-Dawley rats, day 5 of daily PO 1 mg/kg, mean (n = 3), read-out: AUCinf
  AUC(0-inf): 43200 ng·h/mL
[2]; male, Sprague-Dawley, rat, in vivo, po, 1 mg/kg, Sprague-Dawley rats, day 5 of daily PO 1 mg/kg, mean (n = 3), read-out: Clast
  concentration at 24 h: 278 ng/mL
[2]; male, Sprague-Dawley, rat, in vivo, po, 1 mg/kg, Sprague-Dawley rats, day 5 of daily PO 1 mg/kg, mean (n = 3), read-out: Cmax
  Cmax: 4400 ng/mL
[2]; male, Sprague-Dawley, rat, in vivo, po, 1 mg/kg, Sprague-Dawley rats, day 5 of daily PO 1 mg/kg, mean (n = 3), read-out: t1/2 (converted)
  half-life: 6.01 h
[2]; [16]
  AUC(0-t): 35100 ng·h/mL
  MRT inf: 8.25 h
  Tmax: 2 h
[2]; male, Sprague-Dawley, rat, in vivo, po, 1 mg/kg, male Sprague-Dawley rats, single (first) PO 1 mg/kg dose, individual animals, read-out: AUCinf
  AUC(0-inf): 37200 ng·h/mL
[2]; male, Sprague-Dawley, rat, in vivo, po, 1 mg/kg, male Sprague-Dawley rats, single (first) PO 1 mg/kg dose, individual animals, read-out: Clast
  concentration at 24 hr: 179 ng/mL
[2]; male, Sprague-Dawley, rat, in vivo, po, 1 mg/kg, male Sprague-Dawley rats, single (first) PO 1 mg/kg dose, individual animals, read-out: Cmax
  Cmax: 2400 ng/mL
[2]; male, Sprague-Dawley, rat, in vivo, po, 1 mg/kg, male Sprague-Dawley rats, single (first) PO 1 mg/kg dose, individual animals, read-out: t1/2 (converted)
  half-life: 5.51 h
[2]; [17]
  AUC(0-t): 31800 ng·h/mL
  MRT inf: 8.13 h
  Tmax: 2 h
[2]; male, Sprague-Dawley, rat, in vivo, po, 1 mg/kg, male Sprague-Dawley rats, single (first) PO 1 mg/kg dose, mean (n = 3), read-out: AUCinf
  AUC(0-inf): 33600 ng·h/mL
[2]; male, Sprague-Dawley, rat, in vivo, po, 1 mg/kg, male Sprague-Dawley rats, single (first) PO 1 mg/kg dose, mean (n = 3), read-out: Clast
  concentration at 24 hr: 213 ng/mL
[2]; male, Sprague-Dawley, rat, in vivo, po, 1 mg/kg, male Sprague-Dawley rats, single (first) PO 1 mg/kg dose, mean (n = 3), read-out: Cmax
  Cmax: 2580 ng/mL
[2]; male, Sprague-Dawley, rat, in vivo, po, 1 mg/kg, male Sprague-Dawley rats, single (first) PO 1 mg/kg dose, mean (n = 3), read-out: t1/2 (converted)
  half-life: 5.73 h
[2]; male, Sprague-Dawley, rat, in vivo, po, 1 mg/kg, male Sprague-Dawley rats, single PO 1 mg/kg
  bioavailability: 65.4%
[2]; male, Sprague-Dawley, rat, in vivo, po, 1 mg/kg, male Sprague-Dawley rats, single PO 1 mg/kg, at 24 hr, read-out: last measurable concentration
  concentration at 24 h: 213 ng/mL
[2]; male, Sprague-Dawley, rat, in vivo, po, 1 mg/kg, male Sprague-Dawley rats, single PO 1 mg/kg, read-out: peak plasma concentration (Cmax)
  Cmax: 2580 ng/mL
[2]; male, Sprague-Dawley, rat, in vivo, po, 1 mg/kg, male Sprague-Dawley rats, single PO 1 mg/kg, read-out: terminal half-life (t1/2) (converted)
  half-life: 5.73 h
[2]; male, Sprague-Dawley, rat, in vivo, po, 1 mg/kg, male Sprague-Dawley rats, single PO 1 mg/kg, read-out: total systemic exposure (AUCinf)
  AUC(0-inf): 33600 ng·h/mL
